Consider one molecule from patent US11246854B2, “Ozonides for treating or preventing virus infections” (THE JOHNS HOPKINS UNIVERSITY, priority 2017, dated 2022).

As usually defined, the CC50 is the concentration at which the toxic effect on the cells reaches its halfway point.

Each structure is given as a SMILES string. Entries after “also recorded” stand apart in the source; their conditions may differ.

Data set [1] relates to CDK 1, 2, 4, pRb and E2F1 expression. In words: Immunoblot of CDKs, pRb and E2F1, HCMV-infected HFFs. In kind it is cell-based, human. As for the experimental part: (§1) Cell lysates were quantified for total protein content using Pierce bicinchoninic acid (BCA) protein assay kit (Thermo-Fisher Scientific, Waltham, Mass.). Equivalent amounts of protein were mixed with an equal volume of sample buffer (125 mM Tris-HCl [pH 6.8], 4% SDS 20% glycerol, 5% β-mercaptoethanol) and boiled at 100° C. for 10 min. Denatured proteins were resolved in Tris-glycine polyacrylamide gels (10% to 12%) and transferred to polyvinylidene difluoride membranes (Bio-Rad Laboratories, Hercules, Calif.) by electroblotting. Membranes were incubated in blocking solution (5% nonfat dry milk/BSA and 0.1% Tween 20 in PBS [PBST]) for 1 h, washed three times with PBST, and incubated primary antibodies diluted in 5% milk or BSA (for pRb) at 4° C. overnight. The membranes were washed with PBST, followed by incubation with horseradish peroxidase (HRP)-conjugated secondary antibodies in 5% milk/BSA for 1 h at room temperature. After three washing steps with PBST, protein bands were visualized by chemiluminescence using SuperSignal West Pico reagent (Pierce Chemical, Rockford, Ill.). […]
In general terms: A western blot detects proteins with antibodies after separation by electrophoresis.

The next data set relates to HCMV entry. The data set can be described thus: HCMV entry assay. In kind it is cell-based. To be noted: FIG. 4A. As for the experimental part:
To determine the time during HCMV replication that OZ418 was active an entry assay was performed (FIG. 4A).

Data set [2] deals with CDKs, pRB and E2F1 expression. The data set can be described thus: Immunoblot of CDKs, pRb and E2F1, non-infected HFFs. In kind it is cell-based, human. As for the experimental part: as §1
The subject of data set [3] is HCMV in high density and low density HFFs. The data set can be described thus: Effect of cell density on anti-HCMV activity (pp28 luciferase). In kind it is cell-based, human cytomegalovirus. As for the experimental part: To determine the effect of cell density/cycling on the anti-HCMV activity of ozonides, HFFs were plated at 0.5×10^6, 1×10^6, 2×10^6 or 3×10^6 cells/96 well-plate 24 h prior to infection. Infection was carried out at multiplicity of infection of 1 PFU/cell (MOI=1). Following 90 minute adsorption, media containing virus was removed and replaced by DMEM with 4% FBS (Gibco) containing anti-viral compounds. Infected treated HFFs were collected at 72 hpi and pp28 activity was quantified by a Luciferase Assay Kit (Promega, Madison, Wis.) on GloMaxH-Multi+ Detection System (Promega) according to manufacturer's instructions.

The test system of a further data set is GCV-resistant CMV strain. The data set can be described thus: Inhibition of GCV-resistant HCMV. The conditions noted are these: FIG. 3. In kind it is cell-based, human cytomegalovirus. From the text:
FIG. 3A-3D illustrates activity of OZ418 against a GCV-resistant CMV strain. A. Dose response. B. Luciferase. C. HCMV proteins IE1/2, UL44, and pp65 detection. D. Plaque reduction assay.
A GCV-resistant strain was inhibited by OZ418 (FIG. 3).

The test system of the next data set is MCMV. In words: Inhibition of mouse CMV replication in BALB/c mice. In kind it is in vivo. As for the experimental part: For infection experiments BALB/c mice, 4-6 week old, were purchased from Harlan Laboratories (Indianapolis, Ind.). The Animal Care and Use Committee of Johns Hopkins University approved the experimental procedures. After 2-3 days of adaptation to the housing environment, mice were randomly divided into several groups as follows: control, infected, infected+OZ418 1 mg/kg, 3 mg/kg or 10 mg/kg orally once daily, infected+AS 10 mg/kg orally twice daily, infected+GCV 10 mg/kg intraperitoneally twice daily. Mice were infected intraperitoneally with 10^6 PFU/mice (0.1 mL in […] saline) and all treatments were started at 24 hpi. Control mice received 0.1 ml of saline intraperitoneally. Control and infected mice received equivalent volumes of saline. Mice were sacrificed at day 14 after infection. Salivary glands, liver and spleen were harvested and stored at −80° C. Organs were homogenized in DMEM with 4% FBS at a final concentration of 100 mg/mL. Two million MEFs were seeded into 24-well plates. From each sample, 5% of the salivary gland homogenate or 10% of the liver homogenate was used for infection of MEFs in triplicates. Plaques were counted after three days.

The nature of the next data set: MTT cell viability assay. In kind it is cell-based. To be noted: human foreskin fibroblasts. As for the experimental part:
Six ozonizes have been tested for inhibition of HCMV replication and toxicity in human foreskin fibroblasts (Table 1, FIG. 1). The pp28 luciferase-recombinant Towne was used to measure HCMV replication, and an MTT assay—for cell viability.
Cells were seeded in 96-well plates, treated with various concentrations of ozonides and incubated at 37° C. for 3 days. Cell viability was determined by an MTT-based colorimetric assay (Sigma-Aldrich), and performed at the same time points as the antiviral assay.
A general note: Tetrazolium assays rely on reduction of a dye to a coloured formazan, in cell work by metabolically active cells.

Another data set relates to pp28-luciferase HCMV. The data set can be described thus: Add-on and removal experiments. To be noted: luciferase at 72 hpi. In kind it is cell-based, human cytomegalovirus. As for the experimental part: HFFs were infected with the pp28-luciferase HCMV as described above. At 0, 6, 12, 24, 36 and 48 hpi, the media were replaced by the media containing OZ418 or GCV. For time-of-removal studies, media containing the compounds were removed at 0, 6, 12, 24, 36 and 48 hpi, cells were then washed three times with PBS, and drug-free medium was added. The cells were incubated at 37° C., and luciferase assays were carried out at 72 hpi.

As for `O=C(O)COc1ccc([C@H]2CC[C@]3(CC2)OO[C@]2(O3)C3CC4CC(C3)CC2C4)cc1` [OZ418], in data set [1], the “Expression level of CDKs, pRb and E2F1” value was “reduced”. Besides, in the data set with HCMV entry, the “Inhibition of HCMV entry” value is reported as “did not inhibit HCMV entry”. In addition, in data set [2], the “Expression of CDKs, pRB and E2F1” value is on record as “unchanged; also recorded: did not decrease the expression of pRb or any of the tested CDKs”. Moreover, in data set [3] (high-density HFFs, FIG. 8A), the “HCMV inhibition in high-density HFFs” value is reported as “effectively inhibited HCMV”. In data set [3] (low density and high density human fibroblast cells), the “Cell-density dependence of anti-HCMV activity” value was “cell-density dependent”. Further, the “Activity against HCMV in low-density HFFs” value in data set [3] (low-density HFFs, FIG. 8A) is listed as “significantly reduced”. Also, the “Inhibition of GCV-resistant strain” value with GCV-resistant CMV strain was “inhibited”. In addition, in the data set with MCMV (OZ418 once daily vs AS orally twice daily, FIG. 5 D-F), the “MCMV inhibition compared to AS” value was “more effective in MCMV inhibition”. Moreover, in the data set on MCMV (salivary gland, liver and spleen, day 14 after infection, OZ418 1, 3 or 10 mg/kg orally once daily), the “MCMV replication in organs” value is recorded as “effectively inhibits mouse CMV replication; also recorded: dose response was observed”. Further, in the data set “MTT cell viability assay”, half-maximal cytotoxicity (CC50 at 3 days) was put at 128 ± 8 µM. Moreover, in the data set with pp28-luciferase HCMV, the “Timing of anti-HCMV activity” value is on record as “early-late inhibitor of HCMV”.
